Experiments:
[1] = system: MEK1; conditions: preclinical models; cited from earlier work
[2] = system: patients with advanced solid tumours; assay: Phase 1 Part A (dose escalation): safety, DLT, MTD; assay type: in vivo, human
Protocol: The primary objectives of this phase 1 study were to evaluate the safety, tolerability, and MTD of once-weekly (Schedule I) and twice-weekly (Schedule II) dosing. Secondary objectives included evaluation of the PK profile of E6201. […] Toxicity was managed by dose interruption, reduction, and/or discontinuation. Only Cycle 1 adverse events (AEs) were evaluable as DLTs. Based on AEs reported at 480 mg/m^2 and 400 mg/m^2, the protocol was amended to include up to 6 additional toxicity-evaluable patients at 320 mg/m^2, to confirm this as the MTD. All ongoing patients could continue at 320 mg/m^2, regardless of initial starting dose.
Safety was assessed by monitoring AEs, serious AEs (SAEs), laboratory parameters, vital signs, 12-lead electrocardiograms (ECGs), Eastern Cooperative Oncology Group performance status, and symptom-directed physical and neurologic examination findings. AEs were graded by investigators based on the National Cancer Institute Common Terminology Criteria for Adverse Events, version 3.[16]

## CCNc1cc(O)c2c(c1)/C=C/C[C@H](O)[C@H](O)C(=O)/C=C\[C@@H](C)[C@H](C)OC2=O [E6201, (3S,4R,5Z,8S,9S,11E)-14-(ethylamino)-8,9,16-trihydroxy-3,4-dimethyl-3,4,9,19-tetrahydro-1H-2-benzoxacyclotetradecine-1,7 (8H)-dione]
[1]
  Time after dosing at which MEK1 inhibition occurred: 8 h
  Time postdose for which MEK1 inhibition was sustained: 72 h
[2]; Part A
  Patients who discontinued treatment due to SAEs: Two
[2]; Part A (160 and 320 mg/m^2 groups)
  Patients with grade 1/2 eye disorders: two
[2]; Part A overall, 9 patients
  Nausea TEAE, patients: 36%
[2]; Part A, 20 mg/m^2 (n=4)
  Abdominal pain TEAE incidence, All grades: 1 (25.0) n (%)
  Abdominal pain TEAE incidence, G≥3: 0 n (%)
  Constipation TEAE incidence, All grades: 1 (25.0) n (%)
  Constipation TEAE incidence, G≥3: 0 n (%)
  Decreased appetite TEAE incidence, All grades: 1 (25.0) n (%)
  Decreased appetite TEAE incidence, G≥3: 0 n (%)
  Fatigue TEAE incidence, All grades: 1 (25.0) n (%)
  Fatigue TEAE incidence, G≥3: 0 n (%)
  Hypokalemia TEAE incidence, All grades: 1 (25.0) n (%)
  Hypokalemia TEAE incidence, G≥3: 0 n (%)
  Nausea TEAE incidence, All grades: 1 (25.0) n (%)
  Nausea TEAE incidence, G≥3: 0 n (%)
  Peripheral edema TEAE incidence, All grades: 1 (25.0) n (%)
  Peripheral edema TEAE incidence, G≥3: 0 n (%)
  Vomiting TEAE incidence, All grades: 0 n (%)
  Vomiting TEAE incidence, G≥3: 0 n (%)
[2]; Part A, 40 mg/m^2 (n=3)
  Abdominal pain TEAE incidence, All grades: 1 (33.3) n (%)
  Abdominal pain TEAE incidence, G≥3: 0 n (%)
  Constipation TEAE incidence, All grades: 0 n (%)
  Constipation TEAE incidence, G≥3: 0 n (%)
  Decreased appetite TEAE incidence, All grades: 0 n (%)
  Decreased appetite TEAE incidence, G≥3: 0 n (%)
  Fatigue TEAE incidence, All grades: 0 n (%)
  Fatigue TEAE incidence, G≥3: 0 n (%)
  Hypokalemia TEAE incidence, All grades: 1 (33.3) n (%)
  Hypokalemia TEAE incidence, G≥3: 0 n (%)
  Nausea TEAE incidence, All grades: 1 (33.3) n (%)
  Nausea TEAE incidence, G≥3: 0 n (%)
  Peripheral edema TEAE incidence, All grades: 0 n (%)
  Peripheral edema TEAE incidence, G≥3: 0 n (%)
  Vomiting TEAE incidence, All grades: 1 (33.3) n (%)
  Vomiting TEAE incidence, G≥3: 0 n (%)
[2]; Part A, 80 mg/m^2 (n=3)
  Abdominal pain TEAE incidence, All grades: 0 n (%)
  Abdominal pain TEAE incidence, G≥3: 0 n (%)
  Constipation TEAE incidence, All grades: 1 (33.3) n (%)
  Constipation TEAE incidence, G≥3: 0 n (%)
  Decreased appetite TEAE incidence, All grades: 0 n (%)
  Decreased appetite TEAE incidence, G≥3: 0 n (%)
  Fatigue TEAE incidence, All grades: 0 n (%)
  Fatigue TEAE incidence, G≥3: 0 n (%)
  Hypokalemia TEAE incidence, All grades: 0 n (%)
  Hypokalemia TEAE incidence, G≥3: 0 n (%)
  Nausea TEAE incidence, All grades: 0 n (%)
  Nausea TEAE incidence, G≥3: 0 n (%)
  Peripheral edema TEAE incidence, All grades: 1 (33.3) n (%)
  Peripheral edema TEAE incidence, G≥3: 0 n (%)
  Vomiting TEAE incidence, All grades: 0 n (%)
  Vomiting TEAE incidence, G≥3: 0 n (%)
[2]; Part A, 160 mg/m^2 (n=3)
  Abdominal pain TEAE incidence, All grades: 1 (33.3) n (%)
  Abdominal pain TEAE incidence, G≥3: 1 (33.3) n (%)
  Constipation TEAE incidence, All grades: 1 (33.3) n (%)
  Constipation TEAE incidence, G≥3: 0 n (%)
  Decreased appetite TEAE incidence, All grades: 1 (33.3) n (%)
  Decreased appetite TEAE incidence, G≥3: 0 n (%)
  Fatigue TEAE incidence, All grades: 1 (33.3) n (%)
  Fatigue TEAE incidence, G≥3: 0 n (%)
  Hypokalemia TEAE incidence, All grades: 0 n (%)
  Hypokalemia TEAE incidence, G≥3: 0 n (%)
  Nausea TEAE incidence, All grades: 1 (33.3) n (%)
  Nausea TEAE incidence, G≥3: 0 n (%)
  Peripheral edema TEAE incidence, All grades: 1 (33.3) n (%)
  Peripheral edema TEAE incidence, G≥3: 0 n (%)
  Vomiting TEAE incidence, All grades: 1 (33.3) n (%)
  Vomiting TEAE incidence, G≥3: 0 n (%)
[2]; Part A, 320 mg/m^2 (n=7)
  Abdominal pain TEAE incidence, All grades: 2 (28.6) n (%)
  Abdominal pain TEAE incidence, G≥3: 1 (14.3) n (%)
  Constipation TEAE incidence, All grades: 2 (28.6) n (%)
  Constipation TEAE incidence, G≥3: 0 n (%)
  Decreased appetite TEAE incidence, All grades: 2 (28.6) n (%)
  Decreased appetite TEAE incidence, G≥3: 1 (14.3) n (%)
